Assay results taken from ChEMBL document CHEMBL1909046, “DrugMatrix in vitro pharmacology data”.

Tests used:
[1] = molecular target: T1, Cholecystokinin receptor type A (Homo sapiens, UniProt P32238); format: cell membranes, Membrane; details: 1321-n1; further: in other assays of this panel Not Active means under 50% inhibition at 10 µM
T1 sequence (P32238 whole entry): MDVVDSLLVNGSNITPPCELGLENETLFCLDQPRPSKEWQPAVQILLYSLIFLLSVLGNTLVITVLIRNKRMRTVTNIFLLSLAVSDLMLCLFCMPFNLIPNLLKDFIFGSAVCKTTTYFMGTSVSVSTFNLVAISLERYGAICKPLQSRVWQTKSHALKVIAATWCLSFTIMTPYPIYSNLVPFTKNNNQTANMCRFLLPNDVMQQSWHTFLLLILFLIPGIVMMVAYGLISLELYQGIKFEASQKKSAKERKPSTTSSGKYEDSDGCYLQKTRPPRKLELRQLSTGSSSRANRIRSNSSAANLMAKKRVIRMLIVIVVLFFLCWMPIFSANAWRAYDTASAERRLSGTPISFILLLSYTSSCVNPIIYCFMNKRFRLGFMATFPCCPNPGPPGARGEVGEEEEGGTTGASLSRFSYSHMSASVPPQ

Vasopressin V1a receptor = Vasopressin V1a receptor (Homo sapiens, UniProt P37288); format: cell membranes, Membrane; details: hek293; further: in other assays of this panel Not Active means under 50% inhibition at 10 µM
Vasopressin V1a receptor, sequence (P37288 whole entry): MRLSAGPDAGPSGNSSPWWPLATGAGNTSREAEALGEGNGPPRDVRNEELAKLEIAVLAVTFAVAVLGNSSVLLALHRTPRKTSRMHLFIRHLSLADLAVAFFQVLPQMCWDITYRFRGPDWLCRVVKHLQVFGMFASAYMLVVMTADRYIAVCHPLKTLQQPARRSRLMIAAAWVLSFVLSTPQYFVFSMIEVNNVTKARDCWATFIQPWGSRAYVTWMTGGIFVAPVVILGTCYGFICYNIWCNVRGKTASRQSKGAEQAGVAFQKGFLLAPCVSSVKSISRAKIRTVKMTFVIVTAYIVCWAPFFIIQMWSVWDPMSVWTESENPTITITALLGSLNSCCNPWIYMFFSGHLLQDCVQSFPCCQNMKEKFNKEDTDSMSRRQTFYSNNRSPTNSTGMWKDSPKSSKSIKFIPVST

[2] = DRUGMATRIX: Interleukin IL-1 radioligand binding (ligand: [125I] interleukin 1beta); format: cell membranes, Membrane; details: nih3t3; Not Active = under 50% inhibition at 10 µM
[3] = DRUGMATRIX: Sigma2 radioligand binding (ligand: [3H] Ifenprodil); format: cell membranes, Rattus norvegicus, Wistar, Brain, Membrane; details: Not Active = under 50% inhibition at 10 µM
Melanocortin receptor 4 = Melanocortin receptor 4 (Homo sapiens, UniProt P32245); format: cell membranes, Membrane; details: hek293; further: in other assays of this panel Not Active means under 50% inhibition at 10 µM
Melanocortin receptor 4, sequence (P32245 whole entry): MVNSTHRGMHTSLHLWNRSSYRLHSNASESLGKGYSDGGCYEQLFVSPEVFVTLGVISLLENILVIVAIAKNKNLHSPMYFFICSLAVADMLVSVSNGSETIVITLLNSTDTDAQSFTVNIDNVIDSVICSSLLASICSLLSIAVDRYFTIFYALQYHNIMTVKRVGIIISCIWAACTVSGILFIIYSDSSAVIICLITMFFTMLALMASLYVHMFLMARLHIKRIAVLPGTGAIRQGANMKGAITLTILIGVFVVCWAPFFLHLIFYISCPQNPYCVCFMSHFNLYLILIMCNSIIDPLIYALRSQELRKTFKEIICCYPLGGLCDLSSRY

Estrogen receptor = molecular target: T2, Estrogen receptor (Homo sapiens, UniProt P03372); details: sf9; further: in other assays of this panel Not Active means under 50% inhibition at 10 µM
T2 sequence (P03372 whole entry): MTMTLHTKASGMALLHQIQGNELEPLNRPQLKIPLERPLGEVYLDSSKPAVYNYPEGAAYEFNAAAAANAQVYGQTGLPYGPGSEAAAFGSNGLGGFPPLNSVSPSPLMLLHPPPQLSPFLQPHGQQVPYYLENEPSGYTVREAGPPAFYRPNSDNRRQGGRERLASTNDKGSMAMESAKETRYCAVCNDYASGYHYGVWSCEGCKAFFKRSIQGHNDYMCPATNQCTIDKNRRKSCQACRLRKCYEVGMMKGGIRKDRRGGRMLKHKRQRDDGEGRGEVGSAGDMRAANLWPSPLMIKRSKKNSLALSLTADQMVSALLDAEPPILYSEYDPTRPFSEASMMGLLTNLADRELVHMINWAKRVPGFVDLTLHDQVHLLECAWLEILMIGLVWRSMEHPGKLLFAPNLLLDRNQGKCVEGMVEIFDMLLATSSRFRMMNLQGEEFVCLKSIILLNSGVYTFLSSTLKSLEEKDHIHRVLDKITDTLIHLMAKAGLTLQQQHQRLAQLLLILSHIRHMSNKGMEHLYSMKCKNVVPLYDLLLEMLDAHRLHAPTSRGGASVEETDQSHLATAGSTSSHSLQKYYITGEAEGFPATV

[4] = molecular target: Mitogen-activated protein kinase 3 (Homo sapiens, UniProt P27361); experiment: DRUGMATRIX: Protein Serine/Threonine Kinase, ERK1 enzyme inhibition (substrate: Myelin Basic Protein); set-up: species or system Escherichia coli; details: Not Active = under 50% inhibition at 10 µM
Mitogen-activated protein kinase 3, sequence (P27361 whole entry): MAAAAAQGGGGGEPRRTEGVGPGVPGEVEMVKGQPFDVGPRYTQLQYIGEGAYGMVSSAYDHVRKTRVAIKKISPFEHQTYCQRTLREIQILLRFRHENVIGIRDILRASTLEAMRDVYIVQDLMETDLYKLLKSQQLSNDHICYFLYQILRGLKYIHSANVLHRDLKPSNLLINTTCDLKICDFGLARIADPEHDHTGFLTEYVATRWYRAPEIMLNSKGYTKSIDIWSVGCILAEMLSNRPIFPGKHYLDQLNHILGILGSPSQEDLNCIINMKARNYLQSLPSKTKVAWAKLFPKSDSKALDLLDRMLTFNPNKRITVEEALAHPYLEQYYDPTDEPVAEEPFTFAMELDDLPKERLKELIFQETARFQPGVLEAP

[5] = molecular target: T3, Cysteinyl leukotriene receptor 1 (Homo sapiens, UniProt Q9Y271); format: cell membranes, CHO-K1, Membrane; details: cho-k1; further: in other assays of this panel Not Active means under 50% inhibition at 10 µM
T3 sequence (Q9Y271 whole entry): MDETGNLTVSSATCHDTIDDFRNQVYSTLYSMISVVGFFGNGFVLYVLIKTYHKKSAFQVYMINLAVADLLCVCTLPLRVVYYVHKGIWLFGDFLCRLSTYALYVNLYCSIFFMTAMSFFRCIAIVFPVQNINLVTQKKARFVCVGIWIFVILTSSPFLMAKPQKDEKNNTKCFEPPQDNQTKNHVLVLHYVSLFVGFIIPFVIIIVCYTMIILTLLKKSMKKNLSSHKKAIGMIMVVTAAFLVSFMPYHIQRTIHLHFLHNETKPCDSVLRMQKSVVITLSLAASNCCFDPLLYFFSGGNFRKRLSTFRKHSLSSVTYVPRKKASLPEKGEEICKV

[6] = molecular target: Matrix metalloproteinase-9 (Homo sapiens, UniProt P14780); format: cell-based
Matrix metalloproteinase-9, sequence (P14780 whole entry): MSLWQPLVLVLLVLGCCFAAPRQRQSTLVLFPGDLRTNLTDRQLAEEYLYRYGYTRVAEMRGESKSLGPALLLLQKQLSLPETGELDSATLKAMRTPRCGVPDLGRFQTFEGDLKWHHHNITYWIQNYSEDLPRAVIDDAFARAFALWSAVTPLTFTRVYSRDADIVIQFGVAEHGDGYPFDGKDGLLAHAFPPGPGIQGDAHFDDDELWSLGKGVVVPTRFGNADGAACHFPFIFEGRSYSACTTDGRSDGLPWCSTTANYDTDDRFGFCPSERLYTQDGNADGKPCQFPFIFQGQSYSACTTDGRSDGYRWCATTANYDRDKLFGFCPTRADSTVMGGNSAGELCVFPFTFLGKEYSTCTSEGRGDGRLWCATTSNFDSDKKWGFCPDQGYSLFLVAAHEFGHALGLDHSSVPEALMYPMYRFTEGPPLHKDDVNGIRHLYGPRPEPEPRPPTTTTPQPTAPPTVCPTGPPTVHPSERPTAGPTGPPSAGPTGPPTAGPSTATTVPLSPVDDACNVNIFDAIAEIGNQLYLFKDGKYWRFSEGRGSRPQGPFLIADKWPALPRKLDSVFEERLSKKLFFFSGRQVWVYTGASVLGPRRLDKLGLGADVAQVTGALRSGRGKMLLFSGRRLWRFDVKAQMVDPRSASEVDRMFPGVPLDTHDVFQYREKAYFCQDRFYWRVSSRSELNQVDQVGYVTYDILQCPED

[7] = molecular target: T4, 5-hydroxytryptamine receptor 2C (Homo sapiens, UniProt P28335); experiment: DRUGMATRIX: Serotonin (5-Hydroxytryptamine) 5-HT2C radioligand binding (ligand: [3H] Mesulergine); format: cell membranes, CHO-K1, Membrane; details: Not Active = under 50% inhibition at 10 µM; for Ki: read-out: Ki
T4 sequence (P28335 whole entry): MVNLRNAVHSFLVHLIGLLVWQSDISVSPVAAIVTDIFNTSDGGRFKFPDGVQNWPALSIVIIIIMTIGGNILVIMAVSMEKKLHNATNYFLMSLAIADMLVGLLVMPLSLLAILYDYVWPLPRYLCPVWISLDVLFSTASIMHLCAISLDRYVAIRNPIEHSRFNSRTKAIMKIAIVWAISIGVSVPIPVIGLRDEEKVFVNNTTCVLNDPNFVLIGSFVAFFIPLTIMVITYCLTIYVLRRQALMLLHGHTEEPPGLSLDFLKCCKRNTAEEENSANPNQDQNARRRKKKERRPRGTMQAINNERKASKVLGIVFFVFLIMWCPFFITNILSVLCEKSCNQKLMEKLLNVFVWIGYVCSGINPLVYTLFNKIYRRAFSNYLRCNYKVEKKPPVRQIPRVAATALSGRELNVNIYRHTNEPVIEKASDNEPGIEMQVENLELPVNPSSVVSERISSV

[8] = DRUGMATRIX: Calcium Channel Type L, Phenylalkylamine radioligand binding (ligand: [3H] (-)-Desmethoxyverapamil (D-888)); format: cell membranes, Rattus norvegicus, Wistar, Brain, Membrane; details: Not Active = under 50% inhibition at 10 µM
[9] = DRUGMATRIX: Potassium Channel [KATP] radioligand binding (ligand: [3H] Glyburide); format: cell membranes, Membrane; details: hit-t15; Not Active = under 50% inhibition at 10 µM
[10] = molecular target: Kappa-type opioid receptor (Homo sapiens, UniProt P41145); experiment: DRUGMATRIX: Opiate kappa (OP2, KOP) radioligand binding (ligand: [3H] Diprenorphine); format: cell membranes, HEK293, Membrane; details: hek293; Not Active = under 50% inhibition at 10 µM
Kappa-type opioid receptor, sequence (P41145 whole entry): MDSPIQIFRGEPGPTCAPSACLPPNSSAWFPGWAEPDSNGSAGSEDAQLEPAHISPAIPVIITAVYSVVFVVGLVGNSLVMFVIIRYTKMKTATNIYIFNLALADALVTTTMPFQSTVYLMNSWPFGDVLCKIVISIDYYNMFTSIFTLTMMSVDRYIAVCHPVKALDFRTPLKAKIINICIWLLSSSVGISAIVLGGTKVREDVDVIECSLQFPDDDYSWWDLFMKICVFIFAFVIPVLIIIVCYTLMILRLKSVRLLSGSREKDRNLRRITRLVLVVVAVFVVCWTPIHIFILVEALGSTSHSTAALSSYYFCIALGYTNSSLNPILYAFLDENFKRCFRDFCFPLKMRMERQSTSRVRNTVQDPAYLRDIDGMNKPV

Cytochrome P450 3A4 = Cytochrome P450 3A4 (Homo sapiens, UniProt P08684); details: bti-tn-5b1-4; further: in other assays of this panel Not Active means under 50% inhibition at 10 µM
Cytochrome P450 3A4, sequence (P08684 whole entry): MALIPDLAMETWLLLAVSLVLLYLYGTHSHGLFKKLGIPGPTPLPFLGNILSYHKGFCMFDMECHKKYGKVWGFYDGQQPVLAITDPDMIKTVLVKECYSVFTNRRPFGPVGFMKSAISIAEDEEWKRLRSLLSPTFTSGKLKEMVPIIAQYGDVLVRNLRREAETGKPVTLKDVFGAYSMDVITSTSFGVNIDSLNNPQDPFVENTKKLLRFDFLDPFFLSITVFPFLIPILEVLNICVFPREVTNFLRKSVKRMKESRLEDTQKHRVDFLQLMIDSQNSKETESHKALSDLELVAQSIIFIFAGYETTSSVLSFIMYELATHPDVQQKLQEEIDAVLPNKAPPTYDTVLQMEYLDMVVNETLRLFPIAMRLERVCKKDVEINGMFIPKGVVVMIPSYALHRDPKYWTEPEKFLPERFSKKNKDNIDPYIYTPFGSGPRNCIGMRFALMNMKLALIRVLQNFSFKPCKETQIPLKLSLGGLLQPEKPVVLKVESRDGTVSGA

SMILES | IC50 [1] | IC50 (Vasopressin V1a receptor) | IC50 [2] | Ki [2] | IC50 [3] | Ki [3] | IC50 (Melanocortin receptor 4) | IC50 [4] | IC50 [5] | IC50 [6] | IC50 [8] | Ki [8] | IC50 [9] | Ki [9] | IC50 [10] | IC50 (Cytochrome P450 3A4) | Ki (Cytochrome P450 3A4) | IC50 ([7]; cho-k1) | also measured
CN1C[C@H](C(=O)N[C@]2(C)O[C@@]3(O)[C@@H]4CCCN4C(=O)[C@H](Cc4ccccc4)N3C2=O)C=C2c3cccc4[nH]cc(c34)C[C@H]21 [ERGOTAMINE] | Not Active | Not Active | Not Active | Not Active | Not Active | Not Active | Not Active | Not Active | Not Active | Not Active | Not Active | Not Active | Not Active | Not Active |  |  |  |  | IC50 (Estrogen receptor): Not Active; IC50 ([7]; read-out: IC50): 56 nM; Ki [7]: 29 nM
CC1(C)[C@@H](O[C@H]2O[C@H](C(=O)O)[C@@H](O)[C@H](O)[C@H]2O[C@@H]2O[C@H](C(=O)O)[C@@H](O)[C@H](O)[C@H]2O)CC[C@]2(C)[C@H]3C(=O)C=C4[C@@H]5C[C@@](C)(C(=O)O)CC[C@]5(C)CC[C@@]4(C)[C@]3(C)CC[C@@H]12 [GLYCYRRHIZIN] | Not Active | Not Active | Not Active | Not Active | Not Active | Not Active | Not Active | Not Active | Not Active | Not Active | Not Active | Not Active | Not Active | Not Active | Not Active | Not Active | Not Active | Not Active | 
C/C=C1\[C@H]2C=C(C)C[C@]1(N)c1ccc(=O)[nH]c1C2 [HUPERZINE A] | Not Active | Not Active | Not Active | Not Active | Not Active | Not Active | Not Active | Not Active | Not Active | Not Active | Not Active | Not Active | Not Active | Not Active | Not Active | Not Active | Not Active | Not Active | 
Oc1cccc2cccnc12 [OXYQUINOLINE] | Not Active | Not Active | Not Active | Not Active | Not Active | Not Active | Not Active | Not Active | Not Active | Not Active | Not Active | Not Active | Not Active | Not Active | Not Active | Not Active | Not Active | Not Active | 
CC(C)(S)[C@@H](N)C(=O)O [PENICILLAMINE] | Not Active | Not Active | Not Active | Not Active | Not Active | Not Active | Not Active | Not Active | Not Active | Not Active | Not Active | Not Active | Not Active | Not Active | Not Active | Not Active | Not Active | Not Active | 
O=C1NC(=O)C(c2ccccc2)(c2ccccc2)N1 [PHENYTOIN] | Not Active | Not Active | Not Active | Not Active | Not Active | Not Active | Not Active | Not Active | Not Active | Not Active | Not Active | Not Active | Not Active | Not Active | Not Active | Not Active | Not Active | Not Active | 
CCC1(c2ccccc2)C(=O)NCNC1=O [PRIMIDONE] | Not Active | Not Active | Not Active | Not Active | Not Active | Not Active | Not Active | Not Active | Not Active | Not Active | Not Active | Not Active | Not Active | Not Active | Not Active | Not Active | Not Active | Not Active | 
COc1ccc(CN(CCN(C)C)c2ccccn2)cc1 [PYRILAMINE] | Not Active | Not Active | Not Active | Not Active | Not Active | Not Active | Not Active | Not Active | Not Active | Not Active | Not Active | Not Active | Not Active | Not Active | Not Active | Not Active | Not Active |  | IC50 ([7]; read-out: IC50): 1130 nM; Ki [7]: 592 nM
